Our source for the EC50 values is US20250388592A1 (REMYND N.V., priority 2022, published 2025).

SMILES strings stand for the structures.

What is called EC50 is the concentration that produces a half-maximal response. The low end stands for greater potency, the high end for weaker potency.

This assay has as its system M17_3TAU(P301L) cells. The experiment in a line: TAU-induced cytotoxicity (LDH) in the neuroblastoma tauopathy model. In kind it is cell-based. The note with it: Homo sapiens, 168 h, inhibition of TAU-induced toxicity, 7 days retinoic acid differentiation, LDH readout. In outline:
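Stably transfected BE-M17 cells expressing human TAU-P301L, seeded in serum-free detection medium, then differentiated with 2.5 μM RA (added in equal volume) for 7 days at 37° C/5% CO2 to induce TAU aggregation. Cytotoxicity = supernatant LDH increase over total LDH; EC50 from dose-dependent inhibition curves.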

The compound `FC(F)(F)c1cccc(CNC2CC3(C2)CC(Nc2nc(Cc4ccc(Cl)cc4)ns2)C3)c1` (centres unmarked) [Cpd B325, N-(3-(4-chlorobenzyl)-1,2,4-thiadiazol-5-yl)-N′-(3-(trifluoromethyl)benzyl) spiro[3.3]heptane-2,6-diamine] showed an EC50 of 36.2 nM. `CC(=O)Nc1ccc(CNC2CC3(C2)CC(Nc2nc(Cc4ccc(Cl)cc4)ns2)C3)cc1` (centres unmarked) [Cpd B326, N-(4-((6-(3-(4-chlorobenzyl)-1,2,4-thiadiazol-5-ylamino)spiro[3.3]heptan-2-ylamino)methyl)phenyl) acetamide] displayed an EC50 of 145 nM. To `COc1ccc(OC)c(CNC2CC3(C2)CC(Nc2nc(Cc4ccc(Cl)cc4)ns2)C3)c1` (centres unmarked) [Cpd B327, N-(3-(4-chlorobenzyl)-1,2,4-thiadiazol-5-yl)-N′-(2,5-dimethoxybenzyl) spiro[3.3]heptane-2,6-diamine] belongs 9.9 nM. The figure for `COc1ccccc1CCNC1CC2(C1)CC(Nc1nc(Cc3ccc(Cl)cc3)ns1)C2` (centres unmarked) [Cpd B328, N-(3-(4-chlorobenzyl)-1,2,4-thiadiazol-5-yl)-N′-(2-methoxyphenethyl) spiro[3.3]heptane-2,6-diamine] is 2 nM; for `Fc1cc(F)cc(CNC2CC3(C2)CC(Nc2nc(Cc4ccc(Cl)cc4)ns2)C3)c1` (centres unmarked) [Cpd B329, N-(3-(4-chlorobenzyl)-1,2,4-thiadiazol-5-yl)-N′-(3,5-difluorobenzyl) spiro[3.3]heptane-2,6-diamine] it is 2.3 nM; for `Clc1ccc(Cc2nsc(NC3CC4(CC(NCc5cccc6c5OCO6)C4)C3)n2)cc1` (centres unmarked) [Cpd B330, N-(benzo[d][1,3]dioxol-4-ylmethyl)-N′-(3-(4-chlorobenzyl)-1,2,4-thiadiazol-5-yl) spiro[3.3]heptane-2,6-diamine] it is 8 nM. To `CS(=O)(=O)c1ccc(CNC2CC3(C2)CC(Nc2nc(Cc4ccc(Cl)cc4)ns2)C3)cc1` (centres unmarked) [Cpd B331, N-(3-(4-chlorobenzyl)-1,2,4-thiadiazol-5-yl)-N′-(4-(methylsulfonyl)benzyl) spiro[3.3]heptane-2,6-diamine] belongs 73.3 nM; to `Clc1ccc(Cc2nsc(NC3CC4(CC(NCCc5cccc(Cl)c5)C4)C3)n2)cc1` (centres unmarked) [Cpd B332, N-(3-(4-chlorobenzyl)-1,2,4-thiadiazol-5-yl)-N′-(3-chlorophenethyl) spiro[3.3]heptane-2,6-diamine], 2 nM. Compound `COc1ccc(CCNC2CC3(C2)CC(Nc2nc(Cc4ccc(Cl)cc4)ns2)C3)cc1` (centres unmarked) [Cpd B333, N-(3-(4-chlorobenzyl)-1,2,4-thiadiazol-5-yl)-N′-(4-methoxyphenethyl) spiro[3.3]heptane-2,6-diamine] returned an EC50 of 2 nM. `Clc1ccc(Cc2nsc(NC3CC4(CC(NCCc5ccccc5Cl)C4)C3)n2)cc1` (centres unmarked) [Cpd B334, N-(3-(4-chlorobenzyl)-1,2,4-thiadiazol-5-yl)-N′-(2-chlorophenethyl) spiro[3.3]heptane-2,6-diamine] displayed a concentration for a half-maximal effect (EC50) of 2 nM. The figure for `COc1ccc(CCNC2CC3(C2)CC(Nc2nc(Cc4ccc(Cl)cc4)ns2)C3)cc1OC` (centres unmarked) [Cpd B335, N-(3-(4-chlorobenzyl)-1,2,4-thiadiazol-5-yl)-N′-(3,4-dimethoxyphenethyl) spiro[3.3]heptane-2,6-diamine] is 3 nM; for `FC(F)(F)c1cccc(CCNC2CC3(C2)CC(Nc2nc(Cc4ccc(Cl)cc4)ns2)C3)c1` (centres unmarked) [Cpd B336, N-(3-(4-chlorobenzyl)-1,2,4-thiadiazol-5-yl)-N′-(3-(trifluoromethyl)phenethyl) spiro[3.3]heptane-2,6-diamine] it is 7 nM. To `Cn1cc(CN2CC3(C2)CN(C(=O)NCc2ccc(F)cc2)C3)cn1` [Cpd B405] belongs 4820 nM; to `Cn1ccc(CN2CC3(C2)CN(C(=O)NCc2ccc(F)cc2)C3)n1` [Cpd B406], 4620 nM. On to `Cc1cccc(C(=O)N2CC3(CN(Cc4ncccc4C)C3)C2)c1` [Cpd B407], for which the EC50 was 4310 nM. Take `Cc1cccnc1CN1CC2(C1)CN(C(=O)CC13CC(C1)C3)C2` [Cpd B408]: the EC50 is 4000 nM.

Turning to `O=C(Cc1cccnc1)N1CC2(CN(Cc3ccc(F)cc3)C2)C1` [Cpd B409], the EC50 worked out at 3720 nM.
